# Target: IDO1 (Homo sapiens, UniProt P14902)
# Assay: IDO1 Cellular Assay in Hela Cells Stimulated with IFNγ
# Assay type: cell-based
# Conditions: IFNγ 100 ng/mL, 300 uM L-tryptophan, about 48 hours, fluorescence readout, read-out: IDO1 HELA Cell Assay, IC50
# Outline: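 HeLa cells stimulated with 100 ng/mL IFNγ, supplemented with 300 uM L-tryptophan, incubated 48 h at 37° C with ten 3-fold compound dilutions. Unstimulated cells served as Max-E control. Kynurenine detected by fluorescence (ex 400/em 510 nm) after overnight methyl isonipecotate reaction; IC50 by four-parameter logistic fit.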
# Chain of IDO1 (P14902 whole entry): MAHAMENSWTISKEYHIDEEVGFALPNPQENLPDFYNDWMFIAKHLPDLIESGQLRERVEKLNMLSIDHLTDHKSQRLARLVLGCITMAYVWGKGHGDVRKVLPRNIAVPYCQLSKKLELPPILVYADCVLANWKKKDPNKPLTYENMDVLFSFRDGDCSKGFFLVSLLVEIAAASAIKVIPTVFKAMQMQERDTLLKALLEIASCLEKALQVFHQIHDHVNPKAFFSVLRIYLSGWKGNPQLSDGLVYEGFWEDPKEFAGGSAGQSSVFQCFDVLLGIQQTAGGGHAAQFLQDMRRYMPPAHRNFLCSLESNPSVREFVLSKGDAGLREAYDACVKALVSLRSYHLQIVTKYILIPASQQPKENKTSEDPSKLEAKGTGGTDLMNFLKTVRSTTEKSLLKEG
row,SMILES,IC50
1,"O=C(NC1(C23CC(NC(=O)c4ccc(C(F)(F)F)cn4)(C2)C3)CC1)c1ccc(F)cc1 [Example 26, N-(3-(1-(4-fluorobenzamido)cyclopropyl)bicyclo[1.1.1]pentan-1-yl)-5-(trifluoromethyl)picolinamide]",377 nM
2,"Cc1noc(C(=O)NC23CC(C(C)C(=O)Nc4ccc(F)cc4)(C2)C3)n1 (stereo not shown) [Example 114, N-[3-[2-(4-fluoroanilino)-1-methyl-2-oxo-ethyl]-1-bicyclo[1.1.1]pentanyl]-3-methyl-1,2,4-oxadiazole-5-carboxamide]",59.6 nM
3,"C[C@@H](C(=O)Nc1cnc(Cl)c(F)c1)C12CC(NC(=O)c3ccc(Cl)c(Cl)c3)(C1)C2 [Example 89, (R)-3,4-dichloro-N-(3-(1-((6-chloro-5-yl)amino)-1-oxopropan-2-yl)bicyclo[1.1.1]pentan-1-yl)benzamide]",65.4 nM
4,"CC(C)(C(=O)Nc1ccc(F)cc1)C12CC(NC(=O)c3ccc(Cl)c(Cl)c3)(C1)C2 [Example 101, 3,4-Dichloro-N-(3-(1-((4-fluorophenyl)amino)-2-methyl-1-oxopropan-2-yl)bicyclo[1.1.1]pentan-1-yl)benzamide]",16.9 nM
5,"Cc1cc(C(=O)NC23CC([C@@H](C)C(=O)Nc4ccc(F)cc4)(C2)C3)ccc1F [Example 39, 4-fluoro-N-[3-[(1R)-2-(4-fluoroanilino)-1-methyl-2-oxo-ethyl]-1-bicyclo[1.1.l]pentanyl]-3-methyl-benzamide]",201 nM
6,"Cc1ccc(C(=O)NC23CC([C@H](C)C(=O)Nc4ccc(F)cc4)(C2)C3)nc1C [Example 64, N-[3-[(1S)-2-(4-fluoroanilino)-1-methyl-2-oxo-ethyl]-1-bicyclo[1.1.1]pentanyl]-5,6-dimethyl-pyridin-1-ium-2-carboxamide]",11.4 nM
7,"C[C@@H](C(=O)Nc1ccc(F)c(F)c1)C12CC(NC(=O)c3ccc(Cl)c(Cl)c3)(C1)C2 [Example 91, (R)-3,4-dichloro-N-(3-(1-((3,4-difluorophenyl)amino)-1-oxopropan-2-yl)bicyclo[1.1.1]pentan-1-yl)benzamide]",122 nM
8,"CC(C(=O)Nc1ccc(F)cc1)C12CC(NC(=O)c3noc4c3CCCC4)(C1)C2 (stereo not shown) [Example 115, N-[3-[2-(4-fluoroanilino)-1-methyl-2-oxo-ethyl]-1-bicyclo[1.1.1]pentanyl]-4,5,6,7-tetrahydro-1,2-benzoxazole-3-carboxamide]",67 nM

# More lines, in order of falling IC50, values ahead:
row,IC50,SMILES
1,152 nM,"C[C@H](C(=O)Nc1ccc(F)cc1)C12CC(NC(=O)c3cc(F)cc(Cl)c3)(C1)C2 [Example 55, 3-chloro-5-fluoro-N-[3-[(1S)-2-(4-fluoroanilino)-1-methyl-2-oxo-ethyl]-1-bicyclo[1.1.1]pentanyl]benzamide]"
2,133 nM,"CC(C(=O)Nc1ccc(Cl)cc1)C12CC(NC(=O)c3cccc(C#N)c3)(C1)C2 (single isomer, unassigned) [Example 13, N-(3-(1-((4-chlorophenyl)amino)-1-oxopropan-2-yl)bicyclo[1.1.1]pentan-1-yl)-3-cyanobenzamide]"
3,113 nM,"Cc1cccc(C(=O)NC23CC(C(C)C(=O)Nc4ccc(F)cc4)(C2)C3)n1 (stereo not shown) [Example 119, N-[3-[2-(4-fluoroanilino)-1-methyl-2-oxo-ethyl]-1-bicyclo[1.1.1]pentanyl]-6-methyl-pyridin-1-ium-2-carboxamide]"
4,72.2 nM,"Cc1noc(C(=O)NC23CC(C4(NC(=O)c5ccc(F)cc5)CC4)(C2)C3)n1 [Example 28, N-(3-(1-(4-fluorobenzamido)cyclopropyl)bicyclo[1.1.1]pentan-1-yl)-3-methyl-1,2,4-oxadiazole-5-carboxamide]"
5,28.1 nM,"Cc1ncc(C(=O)NC23CC([C@H](C)C(=O)Nc4ccc(F)cc4)(C2)C3)cc1F [Example 65, 5-fluoro-N-[3-[(1S)-2-(4-fluoroanilino)-1-methyl-2-oxo-ethyl]-1-bicyclo[1.1.1]pentanyl]-6-methyl-pyridin-1-ium-3-carboxamide]"

# — patent US11478461B2, “[1.1.1] bicyclo compounds as indoleamine 2,3-dioxygenase inhibitors” (Merck Sharp & Dohme Corp., priority 2018, dated 2022)
